Experimental data taken from patent publication US9301922B1, “Stable high strength pharmaceutical composition of levoleucovorin” (APROFOL AG, priority 2013, dated 2016).

Experiment: Solubility in water (observation)
Assay type: physicochemical
Method: 4.0 g of levoleucovorin calcium (6.7 mmol) are suspended in 100 ml water. The slurry is heated up to about 40° C. to obtain a clear solution. 1.0 g of zinc acetate dihydrate (4.6 mmol) in 10 ml water is slowly added. A precipitate is formed immediately. After one day the precipitate is separated from the mother liquor.

Nc1nc2c(c(=O)[nH]1)N(C=O)[C@@H](CNc1ccc(C(=O)N[C@@H](CCC(=O)[O-])C(=O)[O-])cc1)CN2.[Zn+2] [levoleucovorin zinc]
Solubility in water: almost insoluble in water
